Tests used:
[1] = test system: Bacillus subtilis PCI 219; assay: MIC, in vitro antibacterial activity (standard strains); assay type: cell-based; conditions: 10^6 cells/ml; Gram +
[2] = test system: Staphylococcus aureus 209 P; assay: as above; assay type: cell-based; conditions: 10^6 cells/ml; Gram +
S. aureus Smith = assay: as above; assay type: cell-based, Staphylococcus aureus; conditions: 10^6 cells/ml; Gram +
[3] = test system: S. aureus IID 670 (Terajima); assay: as above; assay type: cell-based, Staphylococcus aureus; conditions: 10^6 cells/ml; Gram +
S. epidermidis IID 866 = assay: as above; assay type: cell-based; conditions: 10^6 cells/ml; Gram +
[4] = test system: Streptococcus pyogenes (S-8); assay: as above; assay type: cell-based; conditions: 10^6 cells/ml; Gram +
S. pyogenes IID 692 = assay: as above; assay type: cell-based, Streptococcus pyogenes; conditions: 10^6 cells/ml; Gram +
S. pneumoniae IID 552 = assay: as above; assay type: cell-based; conditions: 10^6 cells/ml; Gram +
E. faecalis IID 682 = assay: as above; assay type: cell-based; conditions: 10^6 cells/ml; Gram +
[5] = test system: Escherichia coli NIHJ JC-2; assay: as above; assay type: cell-based; conditions: 10^6 cells/ml; Gram -
E. coli ATCC 10536 = assay: as above; assay type: cell-based, Escherichia coli; conditions: 10^6 cells/ml; Gram -
E. coli ML 4707 = assay: as above; assay type: cell-based, Escherichia coli; conditions: 10^6 cells/ml; Gram -; Table 1
[6] = test system: Proteus vulgaris IFO 3167; assay: as above; assay type: cell-based; conditions: 10^6 cells/ml; Gram -
P. mirabilis IID 994 = assay: as above; assay type: cell-based; conditions: 10^6 cells/ml; Gram -
[7] = test system: Morganella morganii IID 602; assay: as above; assay type: cell-based; conditions: 10^6 cells/ml; Gram -
[8] = test system: Klebsiella pneumoniae KY(GN)6445; assay: as above; assay type: cell-based; conditions: 10^6 cells/ml; Gram -
K. pneumoniae 1-220S = assay: as above; assay type: cell-based, Klebsiella pneumoniae; conditions: 10^6 cells/ml; Gram -
[9] = test system: Enterobacter cloacae IID 977; assay: as above; assay type: cell-based; conditions: 10^6 cells/ml; Gram -
[10] = test system: Citrobacter freundii IID 976; assay: as above; assay type: cell-based; conditions: 10^6 cells/ml; Gram -
[11] = test system: Serratia marcescens IID 618; assay: as above; assay type: cell-based; conditions: 10^6 cells/ml; Gram -
Shigella sonnei IID 969 = assay: as above; assay type: cell-based; conditions: 10^6 cells/ml; Gram -
Procedure: Minimal inhibitory concentrations (MICs) were determined in accordance with the method recommended by Japan Society of Chemotherapy.

[12] = test system: Salmonella enteritidis IID 604; assay: as above; assay type: cell-based; conditions: 10^6 cells/ml; Gram -
[13] = test system: Pseudomonas aeruginosa V-1; assay: as above; assay type: cell-based; conditions: 10^6 cells/ml; Gram -
P. aeruginosa IFO 12689 = assay: as above; assay type: cell-based, Pseudomonas aeruginosa; conditions: 10^6 cells/ml; Gram -
P. aeruginosa IID 1210 = assay: as above; assay type: cell-based, Pseudomonas aeruginosa; conditions: 10^6 cells/ml; Gram -
P. cepacia GIFU 518 = assay: as above; assay type: cell-based; conditions: 10^6 cells/ml; Gram -
P. maltophilia GIFU 2491 = assay: as above; assay type: cell-based; conditions: 10^6 cells/ml; Gram -
[14] = test system: Yersinia enterocolitica IID 981; assay: as above; assay type: cell-based; conditions: 10^6 cells/ml; Gram -
[15] = test system: Acinetobacter anitratus IID 876; assay: as above; assay type: cell-based; conditions: 10^6 cells/ml; Gram -
[16] = test system: Alcaligenes faecalis 0114002; assay: as above; assay type: cell-based; conditions: 10^6 cells/ml; Gram -
[17] = test system: Bacteroides fragilis GM 7000; assay: as above; assay type: cell-based; conditions: 10^6 cells/ml; Gram -
B. fragilis 0558 = assay: as above; assay type: cell-based, Bacteroides fragilis; conditions: 10^6 cells/ml; Gram -
B. fragilis 25285 = assay: as above; assay type: cell-based, Bacteroides fragilis; conditions: 10^6 cells/ml; Gram -
B. distasonis 8503 = assay: as above; assay type: cell-based; conditions: 10^6 cells/ml; Gram -
[18] = test system: B. thetaiotaomicron (0661); assay: as above; assay type: cell-based; conditions: 10^6 cells/ml; Gram -
B. vulgatus KYA 29327 = assay: as above; assay type: cell-based; conditions: 10^6 cells/ml; Gram -
[19] = test system: Fusobacterium mortiferum 4249; assay: as above; assay type: cell-based; conditions: 10^6 cells/ml; Gram -
F. necrophorum S-45 = assay: as above; assay type: cell-based; conditions: 10^6 cells/ml; Gram -
F. varium KYA 8501 = assay: as above; assay type: cell-based; conditions: 10^6 cells/ml; Gram -
[20] = test system: Eubacterium lentum GAI 5242; assay: as above; assay type: cell-based; conditions: 10^6 cells/ml; Gram +
E. limosum KYA 8486 = assay: as above; assay type: cell-based; conditions: 10^6 cells/ml; Gram +
[21] = test system: Propionibacterium acens 11828; assay: as above; assay type: cell-based; conditions: 10^6 cells/ml; Gram +
[22] = test system: Peptococcus magnus KY 017; assay: as above; assay type: cell-based; conditions: 10^6 cells/ml; Gram +
C. perfringens KYA 13123 = assay: microbe, parasite or virus in culture; assay type: cell-based; conditions: 10^6 cells/ml; Gram +
C. ramosum = assay: MIC, in vitro antibacterial activity (standard strains); assay type: cell-based; conditions: 10^6 cells/ml; Gram +
[23] = test system: Peptostreptococcus anaerobius KYA 27337; assay: as above; assay type: cell-based; conditions: 10^6 cells/ml; Gram +
Pst. micros UPI 5464-1 = assay: as above; assay type: cell-based; conditions: 10^6 cells/ml; Gram +
[24] = test system: Veillonella parvula KYA 10790; assay: as above; assay type: cell-based; conditions: 10^6 cells/ml; Gram -

Substance: 7-(3-Aminomethyl-4-methyl-1-pyrrolidinyl)-1-cyclopropyl-6,8-difluoro-1,4-dihydro-4-oxo-3-quinolinecarboxylic acid [Example 2]
- MIC [1]: 0.0125 µg/mL
- MIC [2]: 0.025 µg/mL
- MIC (S. aureus Smith): 0.025 µg/mL
- MIC [3]: 0.025 µg/mL
- MIC (S. epidermidis IID 866): 0.025 µg/mL
- MIC [4]: 0.05 µg/mL
- MIC (S. pyogenes IID 692): 0.05 µg/mL
- MIC (S. pneumoniae IID 552): 0.05 µg/mL
- MIC (E. faecalis IID 682): 0.10 µg/mL
- MIC [5]: 0.025 µg/mL
- MIC (E. coli ATCC 10536): 0.025 µg/mL
- MIC (E. coli ML 4707): 0.025 µg/mL
- MIC [6]: 0.05 µg/mL
- MIC (P. mirabilis IID 994): 0.05 µg/mL
- MIC [7]: 0.10 µg/mL
- MIC [8]: 0.05 µg/mL
- MIC (K. pneumoniae 1-220S): 0.05 µg/mL
- MIC [9]: 0.05 µg/mL
- MIC [10]: 0.05 µg/mL
- MIC [11]: 0.10 µg/mL
- MIC (Shigella sonnei IID 969): 0.025 µg/mL
- MIC [12]: 0.05 µg/mL
- MIC [13]: 0.10 µg/mL
- MIC (P. aeruginosa IFO 12689): 0.78 µg/mL
- MIC (P. aeruginosa IID 1210): 0.78 µg/mL
- MIC (P. cepacia GIFU 518): 0.39 µg/mL
- MIC (P. maltophilia GIFU 2491): 0.20 µg/mL
- MIC [14]: 0.05 µg/mL
- MIC [15]: 0.05 µg/mL
- MIC [16]: 0.20 µg/mL
- MIC [17]: 0.78 µg/mL
- MIC (B. fragilis 0558): 0.39 µg/mL
- MIC (B. fragilis 25285): 0.39 µg/mL
- MIC (B. distasonis 8503): 3.13 µg/mL
- MIC [18]: 0.78 µg/mL
- MIC (B. vulgatus KYA 29327): 0.78 µg/mL
- MIC [19]: 0.39 µg/mL
- MIC (F. necrophorum S-45): 0.39 µg/mL
- MIC (F. varium KYA 8501): 0.78 µg/mL
- MIC [20]: 0.78 µg/mL
- MIC (E. limosum KYA 8486): 1.56 µg/mL
- MIC [21]: 0.39 µg/mL
- MIC [22]: 0.20 µg/mL
- MIC (C. perfringens KYA 13123): 0.20 µg/mL
- MIC (C. ramosum): 0.78 µg/mL
- MIC [23]: 0.10 µg/mL
- MIC (Pst. micros UPI 5464-1): 0.39 µg/mL
- MIC [24]: 0.39 µg/mL

Reference: patent US4753953A, “Pyridonecarboxylic acid derivatives and antibacterial pharmaceutical compositions thereof” (priority 1985, dated 1988)
